Test results taken from BindingDB's records for doi:10.1016/j.bmcl.2006.12.014 (The Genomics Institute of The Novartis Research Foundation, 2007).

What follows are molecules tested against Cathepsin Z (Homo sapiens) (UniProt Q9UBR2) (assay: Inhibition of human recombinant cathepsin X).
Cathepsin Z (Homo sapiens), sequence (Q9UBR2 whole entry, looked up): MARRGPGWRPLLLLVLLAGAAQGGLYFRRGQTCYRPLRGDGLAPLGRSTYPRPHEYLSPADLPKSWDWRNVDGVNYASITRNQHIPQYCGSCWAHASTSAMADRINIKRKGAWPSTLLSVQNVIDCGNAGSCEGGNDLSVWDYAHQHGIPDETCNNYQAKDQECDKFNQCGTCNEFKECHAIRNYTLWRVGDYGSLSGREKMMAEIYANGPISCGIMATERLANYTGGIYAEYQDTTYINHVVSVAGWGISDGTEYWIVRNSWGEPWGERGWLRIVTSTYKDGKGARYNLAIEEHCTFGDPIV

In order of rising IC50:
1. O=C1O[C@@H]2CN1CC[C@@H]2Oc1ccccc1 [(1R,2S)-2-phenoxy-7-oxa-5-aza-bicyclo[3.2.1]octan-6-one]  0.326 µM
2. O=C1O[C@@H]2CN1CC[C@@H]2OCc1ccccc1 [(1R,2S)-2-(benzyloxy)-7-oxa-5-aza-bicyclo[3.2.1]octan-6-one]  0.547 µM
3. CC(C)CO[C@H]1CCN2C[C@H]1OC2=O [(1R,2S)-2-isobutoxy-7-oxa-5-aza-bicyclo[3.2.1]octan-6-one]  1.1 µM
4. S=C1O[C@@H]2CN1CC[C@@H]2Oc1ccccc1 [(1R,2S)-2-phenoxy-7-oxa-5-aza-bicyclo[3.2.1]octane-6-thione]  7.15 µM

Target: Cathepsin Z (Homo sapiens) (UniProt Q9UBR2)
Assay: Inhibition of human recombinant cathepsin X
Remark: another data set of the same source

First: Cc1cccc(O[C@H]2CCN3C[C@@H]2OC3=O)c1C (racemic) [rac-trans4-(2,3-dimethylphenoxy)-6-oxa-1-aza-bicyclo[3.2.1]octan-7-one]
Second: Cc1cccc(O[C@H]2CCN3C[C@H]2OC3=O)c1C (relative stereo) [cis-4-(2,3-dimethylphenoxy)-6-oxa-1-aza-bicyclo[3.2.1]octan-7-one]
The IC50 of the first is 2.8-fold higher: 0.553 µM for the first, 0.197 µM for the second. The second is the more potent here.

`O=C1O[C@H]2CN1CC[C@@H]2Br` [(1S,2S)-2-bromo-7-oxa-5-aza-bicyclo[3.2.1]octan-6-one] was tested, and the IC50 was > 10 µM.
